System: Plasmodium berghei
Assay: Luciferase/luciferin-expressing antifolate-resistant parasites were used to infect a culture of HepG2 cells that were pre-incubated with compounds. Infected hepatocytes emit light due to the luciferase reaction. Assay results are presented as the percent inhibition of light emission compared to control. […]
Type: functional
Conditions: sporozoite; for IC90: read-out: LUCIFERASE INFECTION ASSAY - IC90
[1] = read-out: LUCIFERASE INFECTION ASSAY - IC50

Structure (SMILES) | IC90 | IC50 [1] | other results
CC(C)NC(=O)/C(C#N)=C/c1cccc(Cl)c1Cl | > 10 µM |  | IC50 (HEPG2TOX_HILL_SLOPE 9.7, HEPG2TOX_R_SQUARED 0.0223, read-out: LUCIFERASE INFECTION ASSAY - IC50): > 10 µM
c1ccc(Oc2cccc(-c3ccc4nnc(-c5ccc6c(c5)OCO6)n4c3)c2)cc1 | > 10 µM |  | IC50 (PBLUC_HILL_SLOPE 1.92, PBLUC_R_SQUARED 0.18, read-out: LUCIFERASE INFECTION ASSAY - IC50): 8.29 µM
CS(=O)(=O)c1ccc(-c2cc(C3(CNc4cccc(Cl)c4)CC3)ccn2)cc1 | > 10 µM | > 10 µM | 
c1cncc(-c2cn3c(-c4ccsc4)cnc3cn2)c1 | > 11.9 µM | > 11.9 µM | 
CN(C)c1ccc(-c2nccc3n[nH]c(-c4cccc(OC(F)(F)F)c4)c23)cc1 | > 10 µM | > 10 µM | 
CC(C)c1ccc(C(=O)N2CC(C(=O)N3CCOCC3)Oc3ccccc32)cc1 (stereo not given) | > 10 µM | > 10 µM | 
Cc1cc(Cl)ccc1OCc1nnc(-c2ccccn2)[nH]1 | 3.63 µM |  | IC50 (HEPG2TOX_HILL_SLOPE 11.7, HEPG2TOX_R_SQUARED 0.29, PBLUC_HILL_SLOPE 34.3, PBLUC_R_SQUARED 0.372, read-out: LUCIFERASE INFECTION ASSAY - IC50): 3.41 µM
O=C(Nc1cc(Cl)cc(Cl)c1)N1CCC(n2cccc2)CC1 | > 9.76 µM | > 9.76 µM | 
Cc1cc(C(=O)CSc2nc3ccccc3[nH]2)c(C)n1-c1ccc(F)cc1 | 0.513 µM |  | IC50 (HEPG2TOX_HILL_SLOPE 0.596, HEPG2TOX_R_SQUARED 0.924, PBLUC_HILL_SLOPE 3.63, PBLUC_R_SQUARED 0.908, read-out: LUCIFERASE INFECTION ASSAY - IC50): 0.28 µM
CCCCn1c(C(C)Oc2ccc(Cl)cc2Cl)nc2cc(S(N)(=O)=O)ccc21 (stereo not given) | 0.529 µM | 0.233 µM | 
Cc1ccccc1-c1cn2c(-c3ccc(O)cc3)cnc2cn1 | 3.92 µM |  | IC50 (FFLUC_HILL_SLOPE 9.55, FFLUC_R_SQUARED 0.182, HEPG2TOX_HILL_SLOPE 2.1, HEPG2TOX_R_SQUARED 0.88, PBLUC_HILL_SLOPE 16, PBLUC_R_SQUARED 0.259, read-out: LUCIFERASE INFECTION ASSAY - IC50): 3.41 µM
O=C(Nc1nc2ccccn2c1C(=O)NC1CCCC1)c1cccc(Cl)c1F | 1.24 µM |  | IC50 (HEPG2TOX_HILL_SLOPE 0.754, HEPG2TOX_R_SQUARED 0.896, PBLUC_HILL_SLOPE 3.54, PBLUC_R_SQUARED 0.569, read-out: LUCIFERASE INFECTION ASSAY - IC50): 0.669 µM
Cc1ccc2c(c1)/C(=N/Nc1nc3ccccc3s1)C(=O)N2 | 4.93 µM |  | IC50 (HEPG2TOX_HILL_SLOPE 7.15, HEPG2TOX_R_SQUARED 0.815, PBLUC_HILL_SLOPE 8.39, PBLUC_R_SQUARED 0.507, read-out: LUCIFERASE INFECTION ASSAY - IC50): 3.79 µM
COc1cc(/C=C/C(=O)c2ccc(C3CCCCC3)cc2)cc(Br)c1OCC(=O)N(C)C | 3.59 µM |  | IC50 (HEPG2TOX_HILL_SLOPE 2.02, HEPG2TOX_R_SQUARED 0.972, PBLUC_HILL_SLOPE 3.75, PBLUC_R_SQUARED 0.69, read-out: LUCIFERASE INFECTION ASSAY - IC50): 2 µM
CCN1CCc2nc(NC(=O)c3ccccc3Nc3ccc(F)cc3)sc2C1 | 8.04 µM |  | IC50 (PBLUC_HILL_SLOPE 2.71, PBLUC_R_SQUARED 0.663, read-out: LUCIFERASE INFECTION ASSAY - IC50): 3.58 µM
O=C(Cc1coc2ccc3ccccc3c12)Nc1cc(Cl)ccc1N1CCOCC1 | > 10 µM |  | IC50 (FFLUC_HILL_SLOPE 11.6, FFLUC_R_SQUARED 0.426, read-out: LUCIFERASE INFECTION ASSAY - IC50): > 10 µM
CCOC(=O)CCc1c(C)[nH]n(-c2nc3ccccc3[nH]2)c1=O | 3.53 µM |  | IC50 (HEPG2TOX_HILL_SLOPE 1.88, HEPG2TOX_R_SQUARED 0.728, PBLUC_HILL_SLOPE 14.3, PBLUC_R_SQUARED 0.719, read-out: LUCIFERASE INFECTION ASSAY - IC50): 3.03 µM
Cc1ccsc1/C=N/Nc1ccc([N+](=O)[O-])cc1S(=O)(=O)Nc1ccc(Cl)cc1 | 3.77 µM |  | IC50 (HEPG2TOX_HILL_SLOPE 2.24, HEPG2TOX_R_SQUARED 0.991, PBLUC_HILL_SLOPE 12.9, PBLUC_R_SQUARED 0.191, read-out: LUCIFERASE INFECTION ASSAY - IC50): 3.18 µM
CCCNC(=O)c1c(NC(=O)c2cccc(F)c2)nc2ccccn12 | 7.76 µM | 4.52 µM | 
Cc1ccc(-n2c(C)cc(C(=O)COc3c(CO)cc(F)cc3CO)c2C)cc1C | > 10 µM |  | IC50 (PBLUC_HILL_SLOPE 1.7, PBLUC_R_SQUARED 0.588, read-out: LUCIFERASE INFECTION ASSAY - IC50): 6.56 µM
COc1ccc(Nc2nc(CN3CCN(Cc4ccc(C#N)cc4)CC3)cs2)cc1 | > 10 µM | > 10 µM | 
CC(C)c1ccc(C(NCC(=O)NC(=O)NC2CCCC2)c2cccs2)cc1 (stereo not given) | > 10 µM | > 10 µM | 
COCCCn1c(SCc2ccc(C)cc2)nnc1-c1ccc(C(C)(C)C)cc1 | > 8.06 µM |  | IC50 (PBLUC_HILL_SLOPE 1.28, PBLUC_R_SQUARED 0.571, read-out: LUCIFERASE INFECTION ASSAY - IC50): > 8.06 µM

Structure (SMILES) | IC90 | IC50 [1] | other results
FC(F)(F)c1nc2ccccc2n2c(-c3ccc(Cl)cc3)nnc12 | 3.27 µM |  | IC50 (HEPG2TOX_HILL_SLOPE 11.7, HEPG2TOX_R_SQUARED 0.937, PBLUC_HILL_SLOPE 49.4, PBLUC_R_SQUARED 0.195, read-out: LUCIFERASE INFECTION ASSAY - IC50): 3.13 µM
Cc1ccccc1OCCOC(=O)Nc1ccccc1 | > 12.2 µM | > 12.2 µM | 
O=C(Cn1cccc(C(F)(F)F)c1=O)NC(Cc1ccccc1)c1ccccc1 (stereo not given) | > 10 µM | > 10 µM | 
COc1cc(C(=O)N2CC=C(c3c[nH]c4ccccc34)CC2)ccc1C | > 10 µM | > 10 µM | 
O=C(CSc1ccccc1)Nc1nc2ccccn2c1C(=O)NC1CCCC1 | > 8.37 µM |  | IC50 (PBLUC_HILL_SLOPE 8.28, PBLUC_R_SQUARED 0.442, read-out: LUCIFERASE INFECTION ASSAY - IC50): 7.37 µM
COc1ccc2nc(-c3ccccc3)cc(NCCN(C)C)c2c1 | > 10.3 µM |  | IC50 (PBLUC_HILL_SLOPE 1.97, PBLUC_R_SQUARED 0.162, read-out: LUCIFERASE INFECTION ASSAY - IC50): 4.55 µM
CN(C)CCNC(=O)c1ccc(-c2cn3c(-c4ccc(N(C)C)cc4)cnc3cn2)cc1 | > 7.7 µM | > 7.7 µM | 
O=[N+]([O-])c1cnc(Sc2nnc(SCc3cccc(C(F)(F)F)c3)s2)s1 | > 7.56 µM |  | IC50 (FFLUC_HILL_SLOPE 0.915, FFLUC_R_SQUARED 0.422, read-out: LUCIFERASE INFECTION ASSAY - IC50): > 7.56 µM
O=C(CCc1ccc2c(c1)OCO2)Nc1nc(-c2ccc(Br)s2)cs1 | > 10 µM |  | IC50 (PBLUC_HILL_SLOPE 0.607, PBLUC_R_SQUARED 0.509, read-out: LUCIFERASE INFECTION ASSAY - IC50): 5.99 µM
Cc1ccc2c(CSc3nc(N)c(C#N)cc3C#N)cc(=O)oc2c1C | 2.94 µM |  | IC50 (FFLUC_HILL_SLOPE 4.09, FFLUC_R_SQUARED 0.386, HEPG2TOX_HILL_SLOPE 1.27, HEPG2TOX_R_SQUARED 0.917, PBLUC_HILL_SLOPE 1.89, PBLUC_R_SQUARED 0.826, read-out: LUCIFERASE INFECTION ASSAY - IC50): 0.918 µM
Brc1ccc(OCc2ccccc2)c(CNCc2cccnc2)c1 | > 8.61 µM | > 8.61 µM | 
O=C(Nc1cccnc1-n1cccn1)c1csc(-c2ccc(Cl)cc2)n1 | > 2 µM | > 2 µM | 
CC(C)c1nc(N2CCN(CC(=O)N3CCCC3)CC2)c(C#N)c2c1CCC2 | 2.94 µM |  | IC50 (FFLUC_HILL_SLOPE 13.3, FFLUC_R_SQUARED 0.232, PBLUC_HILL_SLOPE 4.16, PBLUC_R_SQUARED 0.67, read-out: LUCIFERASE INFECTION ASSAY - IC50): 1.73 µM
CN(CC(=O)Nc1c(Cl)cccc1Cl)C(=O)c1ccccc1-c1nc2ccccc2s1 | 6.97 µM |  | IC50 (FFLUC_HILL_SLOPE 17.7, FFLUC_R_SQUARED 0.2, PBLUC_HILL_SLOPE 167, PBLUC_R_SQUARED 0.153, read-out: LUCIFERASE INFECTION ASSAY - IC50): 6.87 µM
CCN(CC)c1ccc(NC(=O)c2ccc(Br)o2)cc1S(=O)(=O)Nc1ccccc1OC | 4.43 µM |  | IC50 (HEPG2TOX_HILL_SLOPE 1.78, HEPG2TOX_R_SQUARED 0.619, PBLUC_HILL_SLOPE 2.27, PBLUC_R_SQUARED 0.536, read-out: LUCIFERASE INFECTION ASSAY - IC50): 1.68 µM
Cc1sc2ncnc(NC(C)C(=O)Nc3ccc4c(c3)OCCCO4)c2c1C (stereo not given) | > 10 µM | 8.08 µM | 
COc1ccc2c(Cn3ncc(Cl)c(Cl)c3=O)cc(=O)oc2c1 | 7.19 µM | 4.21 µM | 
COC(=O)c1cnc(Sc2n[nH]c(=O)n2-c2cccc(C(F)(F)F)c2)c([N+](=O)[O-])c1 | > 7.48 µM | > 7.48 µM | 
Cc1cc(C2=NNC(=CN3CCc4sccc4C3c3cccs3)O2)c(C)o1 (stereo not given) | > 10 µM |  | IC50 (FFLUC_HILL_SLOPE 3.77, FFLUC_R_SQUARED 0.256, read-out: LUCIFERASE INFECTION ASSAY - IC50): > 10 µM
COc1ccc(-c2csc3ncnc(Sc4nnc(-c5cccc(C)c5)n4CC(N)=O)c23)cc1 | 2.23 µM |  | IC50 (HEPG2TOX_HILL_SLOPE 1.67, 2.83, HEPG2TOX_R_SQUARED 0.956, 0.971, PBLUC_HILL_SLOPE 8.88, 0.995, PBLUC_R_SQUARED 0.771, 0.637, read-out: LUCIFERASE INFECTION ASSAY - IC50): 0.702 µM
CC(C)c1nccn1Cc1cccc(NC(=O)c2ccc(Br)o2)c1 | > 10 µM | > 10 µM | 
CNC(=O)c1ccc(CN(C2CC2)S(=O)(=O)c2ccc(C)cc2C)cc1 | 8.11 µM |  | IC50 (PBLUC_HILL_SLOPE 2.19, PBLUC_R_SQUARED 0.255, read-out: LUCIFERASE INFECTION ASSAY - IC50): 2.97 µM

From ChEMBL document CHEMBL4483862, “Open-source discovery of chemical leads for next-generation chemoprotective antimalarials” (2018)
